For one data set, the target named is T1, Nox2 (Homo sapiens, UniProt P04839).
T1 construct: endogenous in cells
T1 sequence (P04839 2-570 limits assumed): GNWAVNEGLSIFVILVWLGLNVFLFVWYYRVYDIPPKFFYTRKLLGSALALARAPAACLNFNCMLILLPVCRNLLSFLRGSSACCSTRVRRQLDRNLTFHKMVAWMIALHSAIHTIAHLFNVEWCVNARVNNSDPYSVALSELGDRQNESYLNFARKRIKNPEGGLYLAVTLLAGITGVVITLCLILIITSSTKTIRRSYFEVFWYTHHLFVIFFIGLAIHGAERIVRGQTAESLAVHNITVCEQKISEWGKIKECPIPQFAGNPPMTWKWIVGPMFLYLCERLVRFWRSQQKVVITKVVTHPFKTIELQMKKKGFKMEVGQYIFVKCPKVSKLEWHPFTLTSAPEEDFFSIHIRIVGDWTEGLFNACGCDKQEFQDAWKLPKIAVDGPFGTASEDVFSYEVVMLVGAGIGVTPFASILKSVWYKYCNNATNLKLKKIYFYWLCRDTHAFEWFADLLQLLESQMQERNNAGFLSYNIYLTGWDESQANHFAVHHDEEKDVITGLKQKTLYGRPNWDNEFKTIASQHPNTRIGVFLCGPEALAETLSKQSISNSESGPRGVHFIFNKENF
T1 sequence (P13498 2-195 partner limits assumed): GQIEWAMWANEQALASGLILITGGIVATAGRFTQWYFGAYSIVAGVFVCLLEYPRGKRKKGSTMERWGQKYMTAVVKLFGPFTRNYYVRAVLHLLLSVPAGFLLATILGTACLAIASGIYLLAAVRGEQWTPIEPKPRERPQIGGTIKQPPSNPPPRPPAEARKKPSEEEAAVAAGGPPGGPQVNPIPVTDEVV
The data set is described as follows: CBA probe assay of H2O2 production by PMA-activated dHL60 cells. The data set is classed as cell-based. To be noted: PMA (1 µM)-activated dHL60 cells, 30 min preincubation with inhibitor; read-out: IC50, inhibition of H2O2 production, CBA Assay. On the procedure: Human promyelocytic leukemia HL60 cells (Sigma-Aldrich) were grown in RPMI 1640 medium (Gibco, 11875-093, Billings, MT, USA) supplemented with 10% FBS (Omega Scientific (Tarzana, CA, USA)), 100 units/mL penicillin, and 100 µg/mL streptomycin, and were incubated at 37 °C and 5% carbon dioxide (CO2). For differentiation to neutrophil-like cells, HL60 cells were pelleted and resuspended in fresh media containing 1 µM of all trans-retinoic acid and incubated for four to five days. Nox2 activation was achieved by treating differentiated HL60 (dHL60) cells with 1 µM PMA [24]. Human leukemia monocytic cells, THP-1, were grown in RPMI 1640 medium + GlutaMAX^TM (Gibco, 61870-036) and supplemented with 10% FBS, 10 mM HEPES, and 1 mM sodium pyruvate and incubated at 37 °C in 5% CO2 environment. To induce differentiation into macrophages, THP-1 cells were treated with PMA (100 ng/mL) for 48 h. To test the efficacy of Nox2 inhibitors, treatment was performed with or without the inhibitor, along with PMA [35].
Plate reader-based analyses of the production of O2^•− and H2O2 by PMA-activated dHL60 cells were performed according to a published protocol with minor modifications. Briefly, for the treatment of dHL60 cells with different concentrations of the compounds, 0.5 mL deep-well 96-well plates were used to dispense and store aliquots of their 10 mM DMSO solutions. Using a Multidrop™ PicoIT dispenser (Thermo Scientific), different volumes of the solutions of candidate Nox inhibitors (10 or 50 mM in DMSO) were injected into the bottom of 0.5 mL V-bottom 96-well plates; then, they were sealed with aluminum foil (VWR, Batavia, IL, USA) using a semiautomatic thermal sealer (BT LabSystems, St. Louis, MO, USA) and stored at −20 °C to reduce freeze-thawing the solutions. The plates with inhibitors were allowed to come to room temperature before the addition of the cell suspensions. dHL60 cells were pelleted and resuspended in HBSS (Invitrogen, Waltham, MA, USA) supplemented with 25 mM HEPES (pH 7.4) and 100 µM DTPA to a cell density of 2 × 10^5 cells/mL. dHL60 cells were added to the V-bottom plates at a volume of 210 µL/well. Next, cells were incubated with inhibitors for 30 min at 37 °C in a CO2-free incubator under ambient oxygen and then transferred to black, clear-bottom 96-well plates (200 µL/well) after incubation. Freshly prepared PMA plus probe solutions in HBSS (5× concentrated, 50 µL/well) included PMA (5 µM) with CBA (500 µM) or with Amplex Red (250 µM) plus HRP (0.5 U/mL) for H2O2 detection, or with HE (50 µM) plus DNA (0.5 mg/mL) for O2^•− detection. Once probes + PMA were added, plates were sealed with sealing film and immediately placed in the pre-warmed plate readers (37 °C). Fluorescence intensities were monitored kinetically from the bottom of the plates every 1.3 min for a period of 2 h using Beckman Coulter (Brea, CA, USA) DTX880 and BMG Labtech (Ortenberg, Germany) FLUOstar Omega plate readers. DMSO alone and DPI (10 µM) were used as negative and positive controls, respectively. […] The IC50 values were determined using at least five independent measurements, each consisting of technical quadruplicates per concentration.

Data set [1] in a line: Plasma and brain pharmacokinetics in Sprague Dawley rats. The data set is classed as in vivo. The procedure: Blood samples were collected into labeled microtubes containing dipotassium EDTA solution (20%) as an anticoagulant. Plasma was immediately harvested from the blood by centrifugation at 4000 rpm for 10 min at 4 ± 2 °C and stored below −70 °C until bioanalysis. After isolation, brain tissue samples were rinsed three times in ice cold normal saline (for 5–10 s/rinse using ~5–10 mL normal saline in disposable petri dishes for each rinse) and dried on blotting paper. Tissue samples were homogenized using ice-cold phosphate-buffered saline (pH 7.4). The total homogenate volume (µL) was three times the tissue weight (mg). All homogenates were stored below −70 ± 10 °C until bioanalysis. Concentrations of TG15-132 in plasma and brain samples were determined by fit-for-purpose liquid chromatography with the tandem mass spectrometry method (Sai-Life, Hyderabad, India). Phoenix WinNonlin (version 8.0, Certara, Princeton, NJ, USA) was used to analyze the pharmacokinetic parameters.
Rapid metabolism and the inability to cross the BBB represent major obstacles in the application of bioactive agents in neurodegenerative diseases. Based on the premise that Nox2 plays a major role in oxidative damage and exacerbates neurodegenerative diseases, we envision applications of brain-permeable Nox2 inhibitors in mechanistic studies in vivo, and, long-term, in the development of novel therapeutic strategies. Therefore, we performed in vivo pharmacokinetics studies to determine the time profile of plasma concentration and accumulation of TG15-132 in the brain tissue of Sprague Dawley rats and C57BL6 mice.

Read-outs that look alike come from different tables or passages of the source.

For `CN(C)CCCn1c(SCCc2c[nH]c3ccccc23)nc2ccc(F)cc2c1=O` [TG15-132], on Nox2, the IC50 (usually the midpoint of a concentration-inhibition curve) turned out to be 4.3 ± 1.3 µM. Moreover, the Kp at 8 h in data set [1] (rat, brain, ip, 20 mg/kg i.p., up to 8 h after administration, read-out: brain-to-plasma ratio) was > 10. For the same compound, the half-life – broadly, the time needed for the level to fall by half in the phase considered – was 5.6 h in data set [1] (rat, brain, ip, single dose 20 mg/kg i.p., read-out: brain half-life (converted)) and 3.7 h in data set [1] (rat, plasma, ip, single dose 20 mg/kg i.p., read-out: plasma half-life (converted)). The AUC(0-inf) (usually the area under the concentration-time curve extrapolated to infinity) in data set [1] (rat, plasma, ip, single dose 20 mg/kg i.p.) turned out to be 10200 ng·h/mL. The compound further came in with a clearance rate in data set [1] (single dose 20 mg/kg i.p.) of 32.8 mL/min/kg.
